Results as given in the supplement of paper PMC10307832.

Assays:
Assay in all cases: relative viability (nuclei count vs DMSO), 5 days (fraction); higher = more cells survive
[1] = tested on: PC-3 [JPC-3]
How it was run: (§1)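 Each reported value is a median over duplicate plates. It expresses relative viability: treated-well nuclei count divided by vehicle-well nuclei count. Lung cancer cell lines in 1536-well plates were dosed by pin tool a day after seeding, alone with one drug or with a fixed anchor-drug dose plus five library-drug doses (not always all listed) in √10 steps, and nuclei were counted after 5 days.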

[2] = tested on: LU99A
How it was run: as §1

[3] = tested on: NCI-H2126
How it was run: as §1

[4] = tested on: NCI-H520
How it was run: as §1

[5] = tested on: 201T
How it was run: as §1

[6] = tested on: SW 1573
How it was run: as §1

[7] = tested on: NCI-H1437
How it was run: as §1

[8] = tested on: NCI-H2347
How it was run: as §1

[9] = tested on: UMC-11
How it was run: as §1

[10] = tested on: NCI-H358
How it was run: as §1

[11] = tested on: NCI-H1355
How it was run: as §1

[12] = tested on: NCI-H727
How it was run: as §1

[13] = tested on: NCI-H2009
How it was run: as §1

[14] = tested on: NCI-H2405
How it was run: as §1

[15] = tested on: NCI-H838
How it was run: as §1

[16] = tested on: HCC-366
How it was run: as §1

[17] = tested on: NCI-H1734
How it was run: as §1

[18] = tested on: BEN
How it was run: as §1

[19] = tested on: HARA
How it was run: as §1

[20] = tested on: HCC-78
How it was run: as §1

[21] = tested on: NCI-H441
How it was run: as §1

## COCC1(CO)C(=O)C2CCN1CC2 (centres undefined) [PRIMA-1MET] + Cc1nc(Nc2ncc(C(=O)Nc3c(C)cccc3Cl)s2)cc(N2CCN(CCO)CC2)n1 [Dasatinib] (partner 0.075 µM)
[1]; first compound 0.2 µM
  relative viability: 0.977
[1]; first compound 0.6325 µM
  relative viability: 0.977
[1]; first compound 2 µM
  relative viability: 0.96
[1]; first compound 6.325 µM
  relative viability: 0.933
[1]; first compound 20 µM
  relative viability: 0.971
[2]; first compound 0.2 µM
  relative viability: 0.612
[2]; first compound 0.6325 µM
  relative viability: 0.513
[2]; first compound 2 µM
  relative viability: 0.586
[2]; first compound 6.325 µM
  relative viability: 0.671
[2]; first compound 20 µM
  relative viability: 0.0333
[3]; first compound 0.2 µM
  relative viability: 0.722
[3]; first compound 0.6325 µM
  relative viability: 0.58
[3]; first compound 2 µM
  relative viability: 0.643
[3]; first compound 6.325 µM
  relative viability: 0.646
[3]; first compound 20 µM
  relative viability: 0.605
[4]; first compound 0.2 µM
  relative viability: 0.203
[4]; first compound 0.6325 µM
  relative viability: 0.204
[4]; first compound 2 µM
  relative viability: 0.258
[4]; first compound 6.325 µM
  relative viability: 0.176
[4]; first compound 20 µM
  relative viability: 0.13
[5]; first compound 0.2 µM
  relative viability: 0.635
[5]; first compound 0.6325 µM
  relative viability: 0.369
[5]; first compound 2 µM
  relative viability: 0.59
[5]; first compound 6.325 µM
  relative viability: 0.566
[5]; first compound 20 µM
  relative viability: 0.582
[6]; first compound 0.2 µM
  relative viability: 0.452
[6]; first compound 0.6325 µM
  relative viability: 0.411
[6]; first compound 2 µM
  relative viability: 0.356
[6]; first compound 6.325 µM
  relative viability: 0.0331
[6]; first compound 20 µM
  relative viability: 0.0202
[7]; first compound 0.2 µM
  relative viability: 0.435
[7]; first compound 0.6325 µM
  relative viability: 0.184
[7]; first compound 2 µM
  relative viability: 0.43
[7]; first compound 6.325 µM
  relative viability: 0.405
[7]; first compound 20 µM
  relative viability: 0.286
[8]; first compound 0.2 µM
  relative viability: 0.766
[8]; first compound 0.6325 µM
  relative viability: 0.257
[8]; first compound 2 µM
  relative viability: 0.291
[8]; first compound 6.325 µM
  relative viability: 0.3
[8]; first compound 20 µM
  relative viability: 0.37
[9]; first compound 0.2 µM
  relative viability: 0.53
[9]; first compound 0.6325 µM
  relative viability: 0.466
[9]; first compound 2 µM
  relative viability: 0.504
[9]; first compound 6.325 µM
  relative viability: 0.464
[9]; first compound 20 µM
  relative viability: 0.444
[10]; first compound 0.2 µM
  relative viability: 0.186
[10]; first compound 2 µM
  relative viability: 0.174
[10]; first compound 6.325 µM
  relative viability: 0.178
[10]; first compound 20 µM
  relative viability: 0.0822
[11]; first compound 0.2 µM
  relative viability: 0.793
[11]; first compound 0.6325 µM
  relative viability: 0.571
[11]; first compound 2 µM
  relative viability: 0.785
[11]; first compound 6.325 µM
  relative viability: 0.766
[11]; first compound 20 µM
  relative viability: 0.657
[12]; first compound 0.2 µM
  relative viability: 0.273
[12]; first compound 0.6325 µM
  relative viability: 0.346
[12]; first compound 2 µM
  relative viability: 0.351
[12]; first compound 6.325 µM
  relative viability: 0.225
[12]; first compound 20 µM
  relative viability: 0.166
[13]; first compound 0.2 µM
  relative viability: 0.298
[13]; first compound 0.6325 µM
  relative viability: 0.314
[13]; first compound 2 µM
  relative viability: 0.294
[13]; first compound 6.325 µM
  relative viability: 0.142
[13]; first compound 20 µM
  relative viability: 0.0053
[14]; first compound 0.2 µM
  relative viability: 0.197
[14]; first compound 0.6325 µM
  relative viability: 0.199
[14]; first compound 6.325 µM
  relative viability: 0.169
[14]; first compound 20 µM
  relative viability: 0.0902
[15]; first compound 0.2 µM
  relative viability: 0.31
[15]; first compound 0.6325 µM
  relative viability: 0.279
[15]; first compound 6.325 µM
  relative viability: 0.279
[15]; first compound 20 µM
  relative viability: 0.456
[16]; first compound 0.2 µM
  relative viability: 0.854
[16]; first compound 0.6325 µM
  relative viability: 0.527
[16]; first compound 2 µM
  relative viability: 0.619
[16]; first compound 6.325 µM
  relative viability: 0.67
[16]; first compound 20 µM
  relative viability: 0.318
[17]; first compound 0.2 µM
  relative viability: 0.498
[17]; first compound 0.6325 µM
  relative viability: 0.303
[17]; first compound 2 µM
  relative viability: 0.426
[17]; first compound 6.325 µM
  relative viability: 0.384
[17]; first compound 20 µM
  relative viability: 0.0495
[18]; first compound 0.2 µM
  relative viability: 0.306
[18]; first compound 0.6325 µM
  relative viability: 0.279
[18]; first compound 6.325 µM
  relative viability: 0.271
[18]; first compound 20 µM
  relative viability: 0.339
[19]; first compound 0.2 µM
  relative viability: 0.303
[19]; first compound 0.6325 µM
  relative viability: 0.257
[19]; first compound 6.325 µM
  relative viability: 0.294
[19]; first compound 20 µM
  relative viability: 0.252
[20]; first compound 0.2 µM
  relative viability: 0.427
[20]; first compound 0.6325 µM
  relative viability: 0.331
[20]; first compound 6.325 µM
  relative viability: 0.442
[20]; first compound 20 µM
  relative viability: 0.335
[21]; first compound 0.2 µM
  relative viability: 0.461
[21]; first compound 0.6325 µM
  relative viability: 0.728
[21]; first compound 2 µM
  relative viability: 0.544
[21]; first compound 6.325 µM
  relative viability: 0.571
[21]; first compound 20 µM
  relative viability: 0.134
